Reference: US12122833B2, “Combination therapies of HDAC inhibitors and PD-1 inhibitors” (HUYABIO International, LLC, priority 2016, dated 2024)

Key:
[1] = molecular target: HDAC 1 (Homo sapiens, UniProt Q13547); conditions: reported by Ning et al.; cited from earlier work
[2] = molecular target: T1, HDAC 10 (Homo sapiens, UniProt Q969S8); conditions: reported by Ning et al.; cited from earlier work
T1 sequence (Q969S8 1-669): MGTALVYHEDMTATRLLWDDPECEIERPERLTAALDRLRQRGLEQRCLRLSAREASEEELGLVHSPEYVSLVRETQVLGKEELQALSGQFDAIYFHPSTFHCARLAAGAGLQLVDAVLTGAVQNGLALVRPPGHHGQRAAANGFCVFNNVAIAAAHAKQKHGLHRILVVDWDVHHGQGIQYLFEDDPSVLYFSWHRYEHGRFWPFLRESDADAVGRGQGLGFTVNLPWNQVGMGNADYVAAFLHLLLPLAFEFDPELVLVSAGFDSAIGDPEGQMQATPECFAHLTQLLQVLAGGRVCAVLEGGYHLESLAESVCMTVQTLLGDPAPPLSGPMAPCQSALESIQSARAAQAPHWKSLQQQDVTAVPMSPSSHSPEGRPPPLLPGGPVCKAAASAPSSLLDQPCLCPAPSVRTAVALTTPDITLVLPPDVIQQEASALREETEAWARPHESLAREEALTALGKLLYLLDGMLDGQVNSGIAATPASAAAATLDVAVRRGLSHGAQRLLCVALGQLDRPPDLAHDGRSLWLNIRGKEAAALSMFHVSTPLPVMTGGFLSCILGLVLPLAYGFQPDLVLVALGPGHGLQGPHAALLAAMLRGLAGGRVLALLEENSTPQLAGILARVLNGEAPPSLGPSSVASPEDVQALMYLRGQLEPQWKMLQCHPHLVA

[3] = oral administration; cited from earlier work
[4] = molecular target: HDAC 3 (Homo sapiens, UniProt O15379); conditions: reported by Ning et al.; cited from earlier work
[5] = tested on: MC38 murine colon carcinoma; experiment: Example 3: second-line therapy after PD-L1 inhibitor antibody failure, MC38 syngeneic model in C57BL/6 mice; type: in vivo, mouse
Source text: In this model, a proportion of the animals treated 1st line with the PD-L1 checkpoint inhibitor antibody experience complete tumor regression. However, a similar proportion of animals treated 1st line with the PD-L1 inhibitor antibody experience rapid tumor progression. The balance of the animals treated in this way experience slow tumor progression or stable disease, which is a result which approximates the situation in a number of human cancer patients receiving PD-L1 inhibitor antibody therapy, i.e., they experience a transient partial response, including stable disease, but then develop resistance and rapidly progress, failing PD-1 inhibitor antibody therapy. In this example, the efficacy of HBI-8000 as a second-line therapy, alone and in combination with PD-1 inhibitor antibody RMPI-14, was evaluated for the ability to cause tumor growth delay (TGD) in animals which tumors which are progressing following PD-L1 inhibitor antibody first line therapy in the MC38 murine colon carcinoma syngeneic model in immunocompetent C57BL/6 mice.
Female C57BL/6 mice bearing subcutaneous MC38 tumors (mean tumor volume: 114 mm^3 when treatment began) were treated with a first line of therapy of PD-L1 inhibitor antibody treatment, administered intraperitoneally (i.p.) at 5 mg/kg, twice weekly for two weeks (biwk×2). […] Dosing began on D1, which represents the day of recruitment and varied among mice (this was normalized for each group). The second-line therapies were as follows. Vehicle was administered orally (p.o.). HBI-8000 was administered p.o. at 50 mg/kg. PD-1 inhibitor antibody and anti-PDL-1 were administered intraperitoneally (i.p) at 5 mg/kg. Group 1 mice served as controls and received 0.2% carboxymethyl cellulose: 0.1% Tween 80 in deionized water (vehicle) once daily for twenty-one days (qd×21). Group 2 received HBI-8000 qd×21. Group 3 received a second course of PD-L1 inhibitor antibody biwk×2. Group 4 received HBI-8000 qd×21 and PD-L1 inhibitor antibody biwk×2. Group 5 received anti-PD-1 biwk×2. Group 6 received HBI-8000 qd×21 and anti-PD-1 biwk×2. The study endpoint was tumor volume of 1500 mm^3 or 45 days, whichever came first. Tumor measurements were taken twice weekly until D44 with individual animals exiting the study upon reaching the tumor volume endpoint.
Tumor Implantation and Measurement: Details of tumor implantation and measurement of tumor growth used in this example can be found in Example 1. In this example, each mouse was inoculated subcutaneously in the right flank with 5×10^5 cells (0.1 mL of cell suspension).
Test Articles: HUYA Bioscience International provided HBI-8000 (Lot No. 1384:0033). PD-1 inhibitor antibody RMPI-14 (Lot No. 5611-10/0615) and PDL-1 antibody 10F.9G2 (anti-PDL-1, Lot No. 5786-7-8/0815) were purchased from Bio X cell (West Lebanon, N.H.). All agents were prepared according to protocol instructions.
Dosing Solutions: HBI-8000 was prepared by diluting in 0.2% CMC: 0.1% Tween 80 to yield a 5 mg/mL dosing solution. Dosing solutions were prepared fresh weekly and stored at 4° C. PD-1 inhibitor antibody dosing solution was prepared by diluting an aliquot of the stock (8.62 mg/mL) to 0.5 mg/mL in sterile PBS. The dosing solution was prepared twice weekly and stored at 4° C. Anti-PDL-1 antibody dosing solution was prepared by diluting an aliquot of the stock (5.37 mg/mL) to 0.5 mg/mL in sterile PBS. The anti-PDL-1 antibody dosing solution was prepared twice weekly and stored at 4° C.
Treatment: For the initial PD-L1 inhibitor antibody failure part of this study, 150 C57BL/6 mice were dosed i.p. with first line PD-L1 inhibitor antibody at 5 mg/kg, biwk×2. Animals that met the criteria for reenrollment comprised the efficacy study; this included animals with two consecutive increases in tumor volume and tumor volumes below 500 mm^3. […]

[6] = HBI-8000 50 mg/kg p.o. qd×21, antibodies 5 mg/kg i.p., vs vehicle

HDAC 3, sequence (O15379 whole entry): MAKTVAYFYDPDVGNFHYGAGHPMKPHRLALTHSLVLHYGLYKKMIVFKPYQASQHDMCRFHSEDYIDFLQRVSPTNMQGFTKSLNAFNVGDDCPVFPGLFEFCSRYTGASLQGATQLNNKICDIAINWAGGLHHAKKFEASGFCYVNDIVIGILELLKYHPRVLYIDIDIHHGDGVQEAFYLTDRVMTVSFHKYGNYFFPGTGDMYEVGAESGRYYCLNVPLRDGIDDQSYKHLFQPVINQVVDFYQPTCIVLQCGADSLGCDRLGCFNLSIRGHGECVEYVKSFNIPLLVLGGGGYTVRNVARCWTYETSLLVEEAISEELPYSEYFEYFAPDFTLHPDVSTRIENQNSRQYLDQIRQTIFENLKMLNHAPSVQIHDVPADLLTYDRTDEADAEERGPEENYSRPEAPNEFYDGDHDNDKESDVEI
HDAC 3, sequence (Q9Y618 395-489 partner limits assumed): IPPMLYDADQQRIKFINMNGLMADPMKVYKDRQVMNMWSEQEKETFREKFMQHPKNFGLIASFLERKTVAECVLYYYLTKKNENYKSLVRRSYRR
HDAC 1, sequence (Q13547 whole entry): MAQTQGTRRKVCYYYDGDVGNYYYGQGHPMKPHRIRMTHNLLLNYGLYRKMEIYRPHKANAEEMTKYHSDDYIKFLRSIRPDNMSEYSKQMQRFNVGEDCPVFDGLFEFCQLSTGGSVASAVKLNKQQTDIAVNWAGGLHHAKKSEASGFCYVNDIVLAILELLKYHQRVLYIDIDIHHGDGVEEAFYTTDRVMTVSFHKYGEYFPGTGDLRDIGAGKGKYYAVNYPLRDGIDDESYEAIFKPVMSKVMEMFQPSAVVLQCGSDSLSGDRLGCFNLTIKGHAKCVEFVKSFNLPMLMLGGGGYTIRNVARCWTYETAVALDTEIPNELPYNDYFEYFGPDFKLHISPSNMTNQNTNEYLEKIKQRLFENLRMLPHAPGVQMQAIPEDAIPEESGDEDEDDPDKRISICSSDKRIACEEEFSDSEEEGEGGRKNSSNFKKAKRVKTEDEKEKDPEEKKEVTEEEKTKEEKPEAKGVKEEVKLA

For `Nc1cc(F)ccc1NC(=O)c1ccc(CNC(=O)/C=C/c2cccnc2)cc1` [HBI-8000, N-(2-amino-4-fluorophenyl)-4-[[[(2E)-1-oxo-3-(3-pyridinyl)-2-propen-1-yl]amino]methyl]benz amide], the “activity at HDAC 1 compared with Entinostat” value [1] is given as “more active than Entinostat”, the “inhibition of HDAC 1” value [1] is given as “low nanomolar concentrations” and the “activity at HDAC 10 compared with Entinostat” value [2] is given as “more active than Entinostat”. The “inhibition of HDAC 10” value [2] was “low nanomolar concentrations”, the t1/2 [3] was “about 17 hours” and the “activity at HDAC 3 compared with Entinostat” value [4] was “more active than Entinostat”. For the same compound, the “inhibition of HDAC 3” value [4] was “low nanomolar concentrations”, the “Median TTE” value ([5]; HBI-8000 50 mg/kg p.o. qd×21, antibodies 5 mg/kg i.p., endpoint 1500 mm^3 or 45 days, n=10) was 11.4 days and the “% TGD” value [5, 6] was 31.8%. The “Mean T-C” value [5, 6] was 3.0 days, the “CR (complete response), number of animals” value ([5]; n=10 per group) was 1 and the “NR (no response), number of animals” value ([5]; n=10 per group) was 8. The “PR (partial response), number of animals” value ([5]; n=10 per group) was 1.
